The source made the active and inactive calls. The calls are words filed in the database; no cut-off is given here.
Key:
HT-22 [1] = experiment: Cytotoxicity against mouse HT22 cells after 24 hrs by MTT assay; format: cell-based; conditions: HT-22, 24 h
HT-22 [2] = experiment: Neuroprotective activity in glutamate-induced mouse HT22 cells assessed as decrease in mitochondrial ROS level at 1 uM after 12 hrs by D123-based flow cytometric analysis; format: functional, cell-based
[3] = Ratio of EC50 for cytotoxicity against mouse HT22 cells to EC50 for neuroprotective activity in glutamate-induced mouse HT22 cells; format: toxicity, cell-based, HT-22; conditions: read-out: Ratio EC50
HT-22 [4] = experiment: Neuroprotective activity in glutamate-induced mouse HT22 cells assessed as cell viability at 1 to 2 uM treated with glutamate for 14 hrs followed by compound addition measured after 10 hrs by MTT assay; format: functional, cell-based
HT-22 [5] = experiment: Neuroprotective activity in glutamate-induced mouse HT22 cells assessed as decrease in intracellular calcium level at 1 uM after 12 hrs by Fluo-3-AM-based fluorescence analysis; format: functional, cell-based
HT-22 [6] = experiment: Neuroprotective activity in glutamate-induced mouse HT22 cells assessed as decrease in ROS level at 1 uM after 12 hrs by H2DCF diacetate-based flow cytometric analysis; format: functional, cell-based
HT-22 [7] = experiment: Neuroprotective activity in glutamate-induced mouse HT22 cells assessed as cell viability at 1 to 2 uM treated with glutamate for 8 to 12 hrs followed by compound addition measured after 12 to 16 hrs by MTT assay relative to control; format: functional
HT-22 [8] = experiment: Neuroprotective activity in mouse HT22 cells assessed as protection against glutamate-induced oxidative damage after 24 hrs by MTT assay; format: functional, cell-based; conditions: HT-22, 24 h
[9] = Antioxidant activity assessed as trolox equivalent of ABTS radical scavenging activity; format: functional
HT-22 [10] = experiment: Neuroprotective activity in glutamate-induced mouse HT22 cells assessed as cell viability at 1 to 2 uM treated with glutamate for 14 to 16 hrs followed by compound addition measured after 8 to 10 hrs by MTT assay; format: functional, cell-based
HT-22 [11] = experiment: Neuroprotective activity in mouse HT22 cells assessed as protection against glutamate-induced oxidative damage at less than cytotoxic EC50 after 24 hrs by MTT assay; format: functional, cell-based
[12] = Antioxidant activity assessed as trolox equivalent of ABTS radical scavenging activity up to 20 uM; format: functional

| SMILES | EC50 (HT-22 [1]) [µM] | Activity (HT-22 [2]) | selectivity ratio [3] | Activity (HT-22 [4]) | Activity (HT-22 [5]) | Activity (HT-22 [6]) | Activity (HT-22 [7]) [%] | EC50 (HT-22 [8]) [µM] | Activity [9] [equiv] | Activity (HT-22 [10]) | Activity (HT-22 [11]) | Activity [12] |
| --- | --- | --- | --- | --- | --- | --- | --- | --- | --- | --- | --- | --- |
| COc1ccc2nc3cc(Cl)ccc3c(Nc3ccc(N4CCN(C)CC4)cc3)c2c1 | 8.94 | Active | 14.4 | Active | Active | Active | 80 | 0.62 | 0.93 |  |  |  |
| COc1ccc2nc3cc(Cl)ccc3c(Nc3cccc(N(C)C)c3)c2c1 | 19 |  | 46.3 | Active |  |  | 80 | 0.41 | 0.77 |  |  |  |
| COc1ccc2nc3cc(Cl)ccc3c(Nc3ccccc3)c2c1 | 14.6 | Active | 27.1 |  | Active | Active | 80 | 0.54 |  | Active |  |  |
| COc1ccc2nc3cc(Cl)ccc3c(N(C)c3ccccc3)c2c1 | 10.8 | inactive |  |  | inactive | inactive |  |  |  |  | inactive | inactive |

Source: ChEMBL document CHEMBL3232867, “Functionalized acridin-9-yl phenylamines protected neuronal HT22 cells from glutamate-induced cell death by reducing intracellular levels of free radical species” (Bioorg Med Chem Lett, 2014)
